Activity calls are given as the source filed them. The rule behind the calls is not given here.
What was measured:
[1] = molecular target: T1, Bcr/Abl fusion protein (Homo sapiens) (UniProt P00519+P11274); test: Inhibition of BCR/ABL in human K562 cells assessed as inhibition of ErK phosphorylation up to 0.3 uM after 1 hr by immunoblotting analysis; assay type: cell-based
[2] = molecular target: T2, Bcr/Abl fusion protein (Homo sapiens, UniProt P00519); test: (§1) Inhibition of BCR/ABL in human KU812 cells assessed as inhibition of BCR/ABL autophosphorylation at Y245 site after 1 hr by immunoblotting analysis; assay type: cell-based
[3] = molecular target: T1, Bcr/Abl fusion protein (Homo sapiens); test: as §1; assay type: cell-based
[4] = system: MEC1; test: Antiproliferative activity in human MEC1 cells after 72 hrs by CCK8 assay; assay type: functional; details: MEC1, 72 h
[5] = AUC (0 to t) in mouse at 10 mg/kg, po by LC-MS/MS analysis; assay type: ADME, organism-based; details: in vivo
[6] = system: KU812 cell line; test: Antiproliferative activity in human KU812 cells after 72 hrs by CCK8 assay; assay type: functional; details: KU812, 72 h
[7] = molecular target: Platelet-derived growth factor receptor beta (Homo sapiens) (UniProt P09619); test: Inhibition of wild type C-terminal FLAG-tagged human TEL fused PDGFRbeta (unknown origin) transfected in mouse BAF3 cells assessed as growth inhibition after 72 hrs by CCK8 assay; assay type: cell-based
Platelet-derived growth factor receptor beta (Homo sapiens), sequence (P09619 whole entry, the tested form may be a part): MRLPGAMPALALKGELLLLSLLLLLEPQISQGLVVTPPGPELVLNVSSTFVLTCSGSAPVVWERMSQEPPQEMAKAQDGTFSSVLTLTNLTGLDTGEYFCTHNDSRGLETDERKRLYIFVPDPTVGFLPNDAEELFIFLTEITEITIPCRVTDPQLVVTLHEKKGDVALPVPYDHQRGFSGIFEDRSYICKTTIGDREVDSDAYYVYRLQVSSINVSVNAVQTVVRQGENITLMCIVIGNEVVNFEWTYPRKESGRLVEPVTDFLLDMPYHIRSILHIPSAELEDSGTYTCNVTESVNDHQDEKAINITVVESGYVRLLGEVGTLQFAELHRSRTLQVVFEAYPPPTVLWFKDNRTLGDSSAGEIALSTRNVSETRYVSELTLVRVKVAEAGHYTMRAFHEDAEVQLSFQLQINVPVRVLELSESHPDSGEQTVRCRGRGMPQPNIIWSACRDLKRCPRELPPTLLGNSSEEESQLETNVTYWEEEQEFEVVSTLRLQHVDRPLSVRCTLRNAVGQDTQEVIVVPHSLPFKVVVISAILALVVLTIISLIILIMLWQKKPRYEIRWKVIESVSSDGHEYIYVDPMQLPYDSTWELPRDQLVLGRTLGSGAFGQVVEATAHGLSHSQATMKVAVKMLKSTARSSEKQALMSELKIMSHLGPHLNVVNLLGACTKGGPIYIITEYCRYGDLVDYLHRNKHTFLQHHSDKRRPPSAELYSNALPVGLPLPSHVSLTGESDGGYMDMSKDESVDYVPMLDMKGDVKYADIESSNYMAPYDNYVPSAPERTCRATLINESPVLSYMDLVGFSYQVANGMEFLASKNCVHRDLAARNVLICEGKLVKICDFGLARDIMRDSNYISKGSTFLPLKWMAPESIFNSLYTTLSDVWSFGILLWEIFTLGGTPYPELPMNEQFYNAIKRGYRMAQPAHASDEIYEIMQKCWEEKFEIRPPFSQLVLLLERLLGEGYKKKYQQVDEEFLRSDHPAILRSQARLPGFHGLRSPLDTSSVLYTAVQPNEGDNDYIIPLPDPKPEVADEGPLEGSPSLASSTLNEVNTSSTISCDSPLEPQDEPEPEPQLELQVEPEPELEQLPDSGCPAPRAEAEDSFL

[8] = molecular target: T3, Bcr/Abl fusion protein (Homo sapiens, UniProt P00519, T315I); test: Inhibition of BCR/ABL T315I mutant (unknown origin) expressed in mouse BAF3 cells assessed as inhibition of ErK phosphorylation after 1 hr by immunoblotting analysis; assay type: cell-based
[9] = Toxicity in nu/nu mouse allografted with mouse BAF3 cells expressing BCR/ABL T315I mutant assessed as effect on body weight at 25 to 50 mg/kg, po administered daily via gavage for 14 days; assay type: organism-based; details: in vivo, 336 h
[10] = Apparent clearance during terminal phase in Sprague-Dawley rat at 10 mg/kg, po by LC-MS/MS analysis; assay type: ADME, organism-based; details: in vivo, read-out: CLz/F (converted)
[11] = Apparent volume of distribution during terminal phase in Sprague-Dawley rat at 10 mg/kg, po by LC-MS/MS analysis; assay type: ADME, organism-based; details: in vivo
[12] = system: BaF3; test: Antitumor activity against mouse BAF3 cells expressing BCR/ABL T315I mutant allografted in nu/nu mouse assessed as tumor growth inhibition at 25 mg/kg, po administered via gavage for 14 days relative to control; assay type: functional; details: 336 h, read-out: TGI
[13] = molecular target: T1, Bcr/Abl fusion protein (Homo sapiens); test: Inhibition of BCR/ABL in human MEG01 cells assessed as inhibition of STAT5 phosphorylation up to 0.3 uM after 1 hr by immunoblotting analysis; assay type: cell-based
[14] = Half life in Sprague-Dawley rat at 10 mg/kg, po by LC-MS/MS analysis; assay type: ADME, organism-based; details: in vivo
[15] = system: U-937; test: Antiproliferative activity in human U937 cells after 72 hrs by CCK8 assay; assay type: functional; details: U-937, 72 h
[16] = system: K562; test: Induction of apoptosis in human K562 cells assessed as cleaved PARP level up to 0.3 uM after 24 hrs by immunoblotting analysis; assay type: functional, cell-based
[17] = system: MEG-01; test: Antiproliferative activity in human MEG01 cells after 72 hrs by CCK8 assay; assay type: functional; details: MEG-01, 72 h
[18] = Toxicity in nu/nu mouse allografted with mouse BAF3 cells expressing BCR/ABL T315I mutant at 25 to 50 mg/kg, po administered daily via gavage for 14 days; assay type: organism-based; details: in vivo, 336 h
[19] = molecular target: Proto-oncogene tyrosine-protein kinase receptor Ret (Homo sapiens) (UniProt P07949); test: Inhibition of wild type C-terminal FLAG-tagged human TEL fused RET (unknown origin) transfected in mouse BAF3 cells assessed as growth inhibition after 72 hrs by CCK8 assay; assay type: cell-based
Proto-oncogene tyrosine-protein kinase receptor Ret (Homo sapiens), sequence (P07949 whole entry, the tested form may be a part): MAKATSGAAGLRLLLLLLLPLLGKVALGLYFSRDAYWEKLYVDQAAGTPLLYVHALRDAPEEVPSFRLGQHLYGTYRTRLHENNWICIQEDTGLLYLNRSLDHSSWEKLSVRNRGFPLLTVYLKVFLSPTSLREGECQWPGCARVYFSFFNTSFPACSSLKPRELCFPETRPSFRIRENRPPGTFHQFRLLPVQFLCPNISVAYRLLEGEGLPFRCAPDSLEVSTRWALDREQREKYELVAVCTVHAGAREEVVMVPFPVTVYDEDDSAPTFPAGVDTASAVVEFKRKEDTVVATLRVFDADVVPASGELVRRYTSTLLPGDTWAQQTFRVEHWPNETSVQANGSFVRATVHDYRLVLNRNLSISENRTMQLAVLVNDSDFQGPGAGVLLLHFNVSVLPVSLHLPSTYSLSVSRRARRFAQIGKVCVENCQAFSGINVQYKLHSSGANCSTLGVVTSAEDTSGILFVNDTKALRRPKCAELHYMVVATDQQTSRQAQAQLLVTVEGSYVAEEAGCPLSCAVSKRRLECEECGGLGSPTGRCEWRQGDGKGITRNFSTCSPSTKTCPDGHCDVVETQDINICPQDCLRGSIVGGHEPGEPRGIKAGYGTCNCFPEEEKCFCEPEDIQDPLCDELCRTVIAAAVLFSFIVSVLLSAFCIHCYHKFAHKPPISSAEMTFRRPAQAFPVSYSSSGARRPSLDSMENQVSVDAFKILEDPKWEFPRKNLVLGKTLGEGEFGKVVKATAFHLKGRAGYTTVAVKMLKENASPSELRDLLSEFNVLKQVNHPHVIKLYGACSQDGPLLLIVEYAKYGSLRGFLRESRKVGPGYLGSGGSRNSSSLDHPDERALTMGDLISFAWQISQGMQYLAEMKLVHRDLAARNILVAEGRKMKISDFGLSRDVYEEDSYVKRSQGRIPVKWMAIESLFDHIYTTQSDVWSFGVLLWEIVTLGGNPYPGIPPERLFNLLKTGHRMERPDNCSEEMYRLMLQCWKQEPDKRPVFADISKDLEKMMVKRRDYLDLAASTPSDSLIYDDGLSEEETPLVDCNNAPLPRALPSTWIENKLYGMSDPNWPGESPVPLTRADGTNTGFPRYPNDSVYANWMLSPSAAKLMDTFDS

[20] = Half life in Sprague-Dawley rat at 1 mg/kg, iv by LC-MS/MS analysis; assay type: ADME, organism-based; details: in vivo
[21] = molecular target: Ephrin type-A receptor 2 (Homo sapiens) (UniProt P29317); test: Inhibition of wild type C-terminal FLAG-tagged human TEL fused EPHA2 (unknown origin) transfected in mouse BAF3 cells assessed as growth inhibition after 72 hrs by CCK8 assay; assay type: cell-based
Ephrin type-A receptor 2 (Homo sapiens), sequence (P29317 whole entry, the tested form may be a part): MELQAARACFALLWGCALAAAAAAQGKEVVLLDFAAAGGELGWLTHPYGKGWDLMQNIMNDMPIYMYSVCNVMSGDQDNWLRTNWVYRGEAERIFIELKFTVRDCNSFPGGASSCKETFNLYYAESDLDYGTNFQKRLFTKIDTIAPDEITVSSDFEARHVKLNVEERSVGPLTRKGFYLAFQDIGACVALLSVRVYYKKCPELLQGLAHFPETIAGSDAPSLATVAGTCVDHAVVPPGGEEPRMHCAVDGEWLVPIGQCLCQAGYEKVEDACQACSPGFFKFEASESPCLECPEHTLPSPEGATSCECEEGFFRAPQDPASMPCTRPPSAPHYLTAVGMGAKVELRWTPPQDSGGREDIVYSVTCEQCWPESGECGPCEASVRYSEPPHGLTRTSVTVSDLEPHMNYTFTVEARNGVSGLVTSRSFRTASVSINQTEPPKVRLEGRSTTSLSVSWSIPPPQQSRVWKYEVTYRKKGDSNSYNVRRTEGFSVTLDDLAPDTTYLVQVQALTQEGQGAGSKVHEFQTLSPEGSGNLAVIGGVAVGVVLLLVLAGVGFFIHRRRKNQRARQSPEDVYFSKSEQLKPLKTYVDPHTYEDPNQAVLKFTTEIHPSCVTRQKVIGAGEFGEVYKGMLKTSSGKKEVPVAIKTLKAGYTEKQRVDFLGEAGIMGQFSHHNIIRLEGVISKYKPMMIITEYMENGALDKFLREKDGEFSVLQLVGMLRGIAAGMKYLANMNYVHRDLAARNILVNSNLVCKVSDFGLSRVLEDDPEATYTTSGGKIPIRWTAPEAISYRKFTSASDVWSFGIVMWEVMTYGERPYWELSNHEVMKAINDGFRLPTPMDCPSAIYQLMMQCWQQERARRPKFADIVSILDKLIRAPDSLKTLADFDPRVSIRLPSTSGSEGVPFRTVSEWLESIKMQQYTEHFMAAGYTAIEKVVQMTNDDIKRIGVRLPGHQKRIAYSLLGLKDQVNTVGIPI

[22] = system: Bcr/Abl fusion protein (Homo sapiens), P00519+P11274 [H396P]; details: BaF3
[23] = molecular target: Epithelial discoidin domain-containing receptor 1 (Homo sapiens) (UniProt Q08345); test: Inhibition of wild type C-terminal FLAG-tagged human TEL fused DDR1 (unknown origin) transfected in mouse BAF3 cells assessed as growth inhibition after 72 hrs by CCK8 assay; assay type: cell-based
Epithelial discoidin domain-containing receptor 1 (Homo sapiens), sequence (Q08345 whole entry, the tested form may be a part): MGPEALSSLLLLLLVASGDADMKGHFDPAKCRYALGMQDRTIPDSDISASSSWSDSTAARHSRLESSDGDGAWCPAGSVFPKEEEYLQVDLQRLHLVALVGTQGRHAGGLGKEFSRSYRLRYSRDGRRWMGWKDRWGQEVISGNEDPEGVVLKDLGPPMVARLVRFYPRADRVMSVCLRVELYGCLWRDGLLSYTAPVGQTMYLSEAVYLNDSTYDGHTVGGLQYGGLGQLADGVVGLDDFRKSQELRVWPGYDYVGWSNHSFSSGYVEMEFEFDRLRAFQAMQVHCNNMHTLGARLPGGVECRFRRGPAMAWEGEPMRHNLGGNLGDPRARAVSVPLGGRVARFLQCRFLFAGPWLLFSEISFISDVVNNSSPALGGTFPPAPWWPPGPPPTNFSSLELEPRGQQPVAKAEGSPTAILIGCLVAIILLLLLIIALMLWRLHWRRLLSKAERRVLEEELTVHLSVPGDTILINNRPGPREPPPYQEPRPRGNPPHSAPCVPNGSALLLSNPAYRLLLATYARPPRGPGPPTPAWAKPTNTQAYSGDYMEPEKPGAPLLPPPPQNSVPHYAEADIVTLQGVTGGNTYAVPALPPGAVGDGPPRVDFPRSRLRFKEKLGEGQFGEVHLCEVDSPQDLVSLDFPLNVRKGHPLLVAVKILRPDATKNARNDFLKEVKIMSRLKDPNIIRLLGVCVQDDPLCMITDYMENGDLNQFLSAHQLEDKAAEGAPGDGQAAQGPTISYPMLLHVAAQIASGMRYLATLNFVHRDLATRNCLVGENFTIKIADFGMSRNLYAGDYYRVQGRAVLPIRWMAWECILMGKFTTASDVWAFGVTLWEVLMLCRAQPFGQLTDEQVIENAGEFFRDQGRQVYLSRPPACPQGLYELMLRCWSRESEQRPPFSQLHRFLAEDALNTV

[24] = molecular target: T2, Bcr/Abl fusion protein; test: (§2) Inhibition of BCR/ABL in human MEG01 cells assessed as inhibition of BCR/ABL autophosphorylation at Y245 site after 1 hr by immunoblotting analysis; assay type: cell-based
[25] = molecular target: T1, Bcr/Abl fusion protein (Homo sapiens); test: as §2; assay type: cell-based
[26] = system: OCI-AML2; test: Antiproliferative activity in human OCI-AML2 cells after 72 hrs by CCK8 assay; assay type: functional; details: OCI-AML2, 72 h
[27] = molecular target: Tyrosine-protein kinase ABL1 (Homo sapiens, UniProt P00519); test: Inhibition of active wild type His-tagged ABL (229 to 500 residues) (unknown origin) expressed in baculovirus infected sf9 cells using ABLtide as substrate after 1 hr by ADP-Glo assay
[28] = molecular target: T3, Bcr/Abl fusion protein; test: Inhibition of BCR/ABL T315I mutant (unknown origin) expressed in mouse BAF3 cells assessed as inhibition of BCR/ABL T315I mutant autophosphorylation at Y245 site after 1 hr by immunoblotting analysis; assay type: cell-based
[29] = molecular target: Ephrin type-A receptor 1 (Homo sapiens) (UniProt P21709); test: Inhibition of wild type C-terminal FLAG-tagged human TEL fused EPHA1 (unknown origin) transfected in mouse BAF3 cells assessed as growth inhibition after 72 hrs by CCK8 assay; assay type: cell-based
[30] = system: Bcr/Abl fusion protein (Homo sapiens), P00519+P11274 [Y253F]; details: BaF3
[31] = system: BaF3; test: Antitumor activity against mouse BAF3 cells expressing BCR/ABL T315I mutant allografted in nu/nu mouse assessed as tumor growth inhibition at 25 to 50 mg/kg, po administered via gavage for 14 days by TUNEL staining based assay; assay type: functional, organism-based
[32] = AUC (0 to infinity) in mouse at 10 mg/kg, po by LC-MS/MS analysis; assay type: ADME, organism-based; set-up: dose 10 mg/kg, route oral, time infinity; details: in vivo
[33] = Apparent volume of distribution during terminal phase in Sprague-Dawley rat at 1 mg/kg, iv by LC-MS/MS analysis; assay type: ADME, organism-based; details: in vivo, read-out: Vz
[34] = molecular target: Fibroblast growth factor receptor 4 (Homo sapiens) (UniProt P22455); test: Inhibition of wild type C-terminal FLAG-tagged human TEL fused FGFR4 (unknown origin) transfected in mouse BAF3 cells assessed as growth inhibition after 72 hrs by CCK8 assay; assay type: cell-based
Fibroblast growth factor receptor 4 (Homo sapiens), sequence (P22455 22-802 limits assumed): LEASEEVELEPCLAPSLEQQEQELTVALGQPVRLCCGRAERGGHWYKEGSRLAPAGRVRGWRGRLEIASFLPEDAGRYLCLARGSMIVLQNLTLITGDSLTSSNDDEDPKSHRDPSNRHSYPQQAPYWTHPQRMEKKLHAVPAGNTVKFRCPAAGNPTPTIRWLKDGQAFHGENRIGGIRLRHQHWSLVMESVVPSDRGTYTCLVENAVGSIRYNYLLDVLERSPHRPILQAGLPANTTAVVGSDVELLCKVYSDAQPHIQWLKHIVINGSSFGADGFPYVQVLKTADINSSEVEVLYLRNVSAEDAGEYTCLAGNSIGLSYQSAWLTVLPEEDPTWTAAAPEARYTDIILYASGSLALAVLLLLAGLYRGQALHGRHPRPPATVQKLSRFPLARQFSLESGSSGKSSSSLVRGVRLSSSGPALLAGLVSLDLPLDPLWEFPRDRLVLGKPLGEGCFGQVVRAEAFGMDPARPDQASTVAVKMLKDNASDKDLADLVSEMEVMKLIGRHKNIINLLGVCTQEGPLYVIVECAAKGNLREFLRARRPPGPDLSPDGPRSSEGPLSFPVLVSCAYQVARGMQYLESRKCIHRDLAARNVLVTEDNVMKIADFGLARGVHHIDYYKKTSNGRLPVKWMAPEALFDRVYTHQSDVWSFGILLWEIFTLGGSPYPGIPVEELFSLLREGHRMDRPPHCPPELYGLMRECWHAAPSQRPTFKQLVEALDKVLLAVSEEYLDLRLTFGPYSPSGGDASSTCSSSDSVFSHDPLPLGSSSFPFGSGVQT

[35] = system: BaF3; test: Cell cycle arrest in mouse BAF3 cells expressing BCR/ABL T315I mutant assessed as accumulation at G0/G1 phase up to 0.3 uM after 24 hrs by propidium iodide/RNase staining based flow cytometric analysis; assay type: functional
[36] = Tmax in Sprague-Dawley rat at 10 mg/kg, po by LC-MS/MS analysis; assay type: ADME, organism-based; details: in vivo

CN1CCN(Cc2ccc(NC(=O)CCSc3ccc4c(/C=C/c5ccccn5)n[nH]c4c3)cc2C(F)(F)F)CC1
inhibition [1]: Active
EC50 [2]: < 30 nM
inhibition [3]: Dose-dependent effect
GI50 [4]: 500 nM
AUC(0-t) [5]: 225 ng·h/mL
GI50 [6]: 3 nM
GI50 [7]: 8 nM
EC50 [8]: < 10 nM
Activity [9]: Non-Toxic
CL/F [10]: 633 mL/min/kg
Vz [11]: 139.1 L/kg
inhibition in vivo at 25 mg/kg [12]: 29%
inhibition [13]: Active
half-life [14]: 2.6 h
GI50 [15]: 780 nM
Activity [16]: Active
GI50 [17]: 1 nM
Activity [18]: Non-Toxic
GI50 [19]: 200 nM
half-life [20]: 2.3 h
GI50 [21]: 120 nM
GI50 [22]: 35 nM
GI50 [23]: 1360 nM
EC50 [24]: < 10 nM
inhibition [25]: Dose-dependent effect
GI50 [26]: 1420 nM
IC50 [27]: 17 nM
EC50 [28]: < 10 nM
GI50 [29]: 920 nM
GI50 [30]: 180 nM
TGI [31]: Active
AUC(0-inf) [32]: 230 ng·h/mL
Vd [33]: 17.7 L/kg
GI50 [34]: 75 nM
Activity [35]: Active
Tmax [36]: 3.3 h
